Results on two compounds are retold here after patent US20130225611A1, “Compositions and Methods for Reducing Cancer Cell Proliferation and Modulating Importin-Beta Function” (THE REGENTS OF THE UNIVERSITY OF CALIFORNIA, priority 2011, published 2013).

Test [1] deals with CRM1-mediated export of NFAT-GFP. Description: NFAT-GFP nuclear export after ionomycin washout in HEK 293 cells. As to conditions: HEK 293, importazole 40 μM, leptomycin B 10 ng/ml, 1 hour after ionomycin washout. Type of test: cell-based, human.
Experimental: For all import and export experiments, HEK 293 cells stably expressing NFAT-GFP were grown on glass coverslips to approximately 50% confluency prior to drug treatment. In all cases, importazole was used at 40 μM and leptomycin B was used at 10 ng/ml. For controls, DMSO was used at a concentration of 0.4%. Ionomycin was added at 1.25 μM. Importazole and leptomycin B treatments were all for 1 hour. In all experiments cells were fixed with 4% formaldehyde prior to fluorescence microscopy. DNA was visualized with 1 μg/ml Hoechst dye.
Test [2] concerns spindle assembly around sperm chromosomes. Description: spindle assembly in metaphase-arrested Xenopus egg extracts. As to conditions: 100 μM importazole. On the set-up: species or system Xenopus laevis. An excerpt:
In order to determine whether importazole also disrupts mitosis, importazole was first tested in metaphase-arrested Xenopus egg extracts, which rely heavily on a RanGTP gradient for spindle assembly around sperm chromosomes. […] The effect was similar to that of adding a truncated importin-β (amino acids 71-876), a version that no longer binds to RanGTP and therefore sequesters its cargoes. […] Thus, importazole caused dramatic effects on spindle assembly consistent with the known role of the importin-β/RanGTP pathway in the Xenopus egg extract system, and is not a general microtubule inhibitor.
Xenopus laevis egg extracts were prepared as described by Hannak et al. (2006) Nat. Protoc. 1:2305-2314. For in vitro spindle assembly, Xenopus laevis sperm DNA was added to egg extracts supplemented with rhodamine-labeled tubulin. Asters were formed by addition of 5% DMSO. DNA was stained with Hoechst dye. The formation of microtubule-based structures was assessed using epifluorescence microscopy after a 30-minute room temperature incubation. In vitro microtubule polymerization and pelleting assays were performed by incubating 25 μM bovine tubulin, 1 mM GTP, and 5% DMSO in BRB80 buffer (80 mM PIPES, 1 mM MgCl2, 1 mM EGTA, pH 6.8) at 37° C. for 30 minutes. Polymerized microtubules were pelleted through a sucrose cushion, resuspended, and analyzed by SDS PAGE.

In the case of `CCC(=C/[C@H](C)C/C=C/C(C)=C/[C@@H](C)C(=O)[C@@H](C)[C@H](O)[C@@H](C)C/C(C)=C/C(=O)O)/C=C/[C@@H]1OC(=O)C=C[C@@H]1C` [leptomycin B, reference compound], the “CRM1-mediated export of NFAT-GFP” value in test [1] was “blocked”.
As for “truncated importin-β (amino acids 71-876): truncated importin-β that no longer binds to RanGTP and therefore sequesters its cargoes”, in test [2], the “sperm nuclei at which normal bipolar microtubule structures were prevented from forming” value is “similar”.
